Laboratory results from paper PMC9394386 (Cancer Discovery, 2022).
Several values for one entry are separate records, joined by “and”; a condition that tells them apart may be missing. Equal values may be shown once. Values belong to the compound of their own block, whether it stands above or below them. Positions of bridges follow the written chain, without caps; N, C: chain ends. Non-standard residues stand in square brackets, D forms with d. Residues, ends and D or L forms follow the SMILES beside them. NMeF = CN[C@@H](Cc1ccccc1)C(=O)O; NMeNle = CCCC[C@H](NC)C(=O)O; Sar = CNCC(=O)O

Legend:
[1] = molecular target: T1, PD-L1 (Homo sapiens, UniProt Q9NZQ7); assay: PD-L1/PD-1 HTRF binding assay, human PD-L1
Target sequence in this assay (Q9NZQ7 19-238 limits assumed): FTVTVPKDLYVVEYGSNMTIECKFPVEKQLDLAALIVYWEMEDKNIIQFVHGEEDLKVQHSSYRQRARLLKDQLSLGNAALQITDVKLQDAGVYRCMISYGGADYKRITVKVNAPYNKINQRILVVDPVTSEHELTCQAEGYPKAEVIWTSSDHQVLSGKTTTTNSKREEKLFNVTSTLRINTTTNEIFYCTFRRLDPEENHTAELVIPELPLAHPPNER

[2] = molecular target: cynomolgus PD-L1 (Macaca fascicularis, UniProt G7PSE7); assay: PD-L1/PD-1 HTRF binding assay, cynomolgus PD-L1
Sequence of cynomolgus PD-L1 (G7PSE7 19-239): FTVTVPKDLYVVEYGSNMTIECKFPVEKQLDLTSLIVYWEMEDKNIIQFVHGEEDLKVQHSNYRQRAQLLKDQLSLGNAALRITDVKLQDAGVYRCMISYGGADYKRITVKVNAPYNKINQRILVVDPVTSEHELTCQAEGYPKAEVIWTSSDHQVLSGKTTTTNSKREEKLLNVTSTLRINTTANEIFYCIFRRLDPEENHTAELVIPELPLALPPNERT
Sequence of cynomolgus PD-L1 (Q15116 25-167 partner): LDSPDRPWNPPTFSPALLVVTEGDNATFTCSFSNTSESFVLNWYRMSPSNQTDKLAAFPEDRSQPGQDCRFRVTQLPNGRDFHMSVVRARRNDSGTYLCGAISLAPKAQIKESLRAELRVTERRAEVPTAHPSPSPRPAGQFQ

[3] = molecular target: rat PD-L1 (Rattus norvegicus, UniProt D4AE25); assay: PD-L1/PD-1 HTRF binding assay, rat PD-L1; conditions: human PD-1
Sequence of rat PD-L1 (D4AE25 19-238): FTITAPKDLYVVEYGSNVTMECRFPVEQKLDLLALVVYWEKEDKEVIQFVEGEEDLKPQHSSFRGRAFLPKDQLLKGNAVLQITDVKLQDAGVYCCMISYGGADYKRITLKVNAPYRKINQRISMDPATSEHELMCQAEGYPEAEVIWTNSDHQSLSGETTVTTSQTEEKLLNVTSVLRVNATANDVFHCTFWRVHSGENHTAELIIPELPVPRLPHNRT
Sequence of rat PD-L1 (Q15116 25-167 partner): as the sequence (Q15116 25-167 partner) above

[4] = molecular target: mouse PD-L1 (Mus musculus, UniProt Q9EP73); assay: PD-L1/PD-1 HTRF binding assay, mouse PD-L1
Sequence of mouse PD-L1 (Q9EP73 19-238 limits assumed): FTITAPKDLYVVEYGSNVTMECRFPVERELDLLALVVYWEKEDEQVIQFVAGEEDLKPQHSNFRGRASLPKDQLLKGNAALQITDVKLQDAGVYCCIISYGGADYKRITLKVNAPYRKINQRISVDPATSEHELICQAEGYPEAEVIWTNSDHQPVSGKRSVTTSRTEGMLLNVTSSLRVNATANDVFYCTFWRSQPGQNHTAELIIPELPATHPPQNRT

[5] = molecular target: human PD-L2 (Homo sapiens, UniProt Q9BQ51); assay: PD-L2/PD-1 HTRF binding assay
Sequence of human PD-L2 (Q9BQ51 20-219 limits assumed): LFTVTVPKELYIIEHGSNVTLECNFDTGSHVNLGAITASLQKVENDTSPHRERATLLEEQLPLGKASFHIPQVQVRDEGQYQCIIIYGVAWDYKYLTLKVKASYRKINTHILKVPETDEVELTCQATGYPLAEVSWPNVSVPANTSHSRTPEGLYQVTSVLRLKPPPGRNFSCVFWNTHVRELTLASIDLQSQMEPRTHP

[6] = system: PD-1–mediated SHP recruitment; assay: PD-1–SHP reporter assay; format: cell-based; conditions: read-out: IC50, SHP recruitment
[7] = system: NFAT signaling; assay: NFAT reporter assay; format: cell-based; conditions: read-out: NFAT activation (IC50 in Table 1, EC50 in text)
[8] = molecular target: T2, PD-L1 on CHO PD-L1 cells (Homo sapiens, UniProt Q9NZQ7); assay: Cell-based PD-1 binding assay; conditions: concentrations ≥160 nmol/L
T2 sequence (Q9NZQ7 19-290): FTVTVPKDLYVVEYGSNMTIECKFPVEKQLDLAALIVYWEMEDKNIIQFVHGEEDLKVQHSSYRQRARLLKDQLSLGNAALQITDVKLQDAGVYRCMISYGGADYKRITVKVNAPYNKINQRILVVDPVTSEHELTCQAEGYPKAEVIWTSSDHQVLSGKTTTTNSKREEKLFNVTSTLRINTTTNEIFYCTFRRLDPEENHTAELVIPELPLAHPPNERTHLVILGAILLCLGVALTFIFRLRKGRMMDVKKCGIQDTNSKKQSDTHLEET

[9] = molecular target: T1, PD-L1; assay: Flow cytometry competition with anti–PD-L1 mAbs on CHO PD-L1 cells; format: cell-based; conditions: 1 µmol/L
Target sequence in this assay (Q9NZQ7 19-290): as above

[10] = molecular target: Human PD-L1-FLAG tag protein (Homo sapiens, UniProt Q9NZQ7); assay: SPR antibody competition; format: binding; conditions: 1 µM
Sequence of Human PD-L1-FLAG tag protein (Q9NZQ7 19-290): as above

[11] = molecular target: T3, PD-L1 (aa 19-239) (Homo sapiens, UniProt Q9NZQ7); assay: SEC-MALS of PD-L1 complexes; format: binding; conditions: 15 µmol/L PD-L1, 100 µmol/L compound
T3 sequence (Q9NZQ7 19-239): as the sequence (G7PSE7 19-239) above, with T33A, S34A, N62S, Q68R, R82Q, L173F, A185T, I192T, L215H counted along it

[12] = molecular target: T3, PD-L1 (aa 19-239); assay: Isothermal titration calorimetry; format: binding
[13] = molecular target: T2, PD-L1 on CHO PD-L1 cells; assay: Unoccupied and total PD-L1 by flow cytometry; format: cell-based; conditions: 18 hours
[14] = molecular target: T2, PD-L1 on CHO PD-L1 cells; assay: Live-cell imaging of PD-L1 internalization; format: cell-based; conditions: 1 µmol/L
[15] = molecular target: T4, PD-L1 in CHO PD-L1 cells (Homo sapiens, UniProt Q9NZQ7); assay: Total PD-L1 by Western blot; format: cell-based; conditions: 0.2 or 1 µM
T4 sequence (Q9NZQ7 19-290): as the sequence (Q9NZQ7 19-290) above

[16] = molecular target: T4, PD-L1 in CHO PD-L1 cells; assay: Confocal microscopy of PD-L1 internalization; format: cell-based; conditions: 18 hours, INCB086550 1 µmol/L, atezolizumab 10 µg/mL
[17] = molecular target: human PD-L1 on MBT2 clones (Homo sapiens, UniProt Q9NZQ7); assay: Isogenic MBT2 cell line PD-L1 internalization; format: cell-based; conditions: EC50, PD-L1 internalization (MIH1), 16 hours
Sequence of human PD-L1 on MBT2 clones (Q9NZQ7 19-127 limits assumed): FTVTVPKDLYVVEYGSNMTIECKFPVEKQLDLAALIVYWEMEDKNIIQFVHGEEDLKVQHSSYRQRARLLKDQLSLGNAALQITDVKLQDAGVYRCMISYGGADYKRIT

[18] = molecular target: T5, PD-L1 on monocytes (Homo sapiens, UniProt Q9NZQ7); assay: Unoccupied PD-L1 on monocytes in human whole blood; format: cell-based
T5 sequence (Q9NZQ7 19-290): as the sequence (Q9NZQ7 19-290) above

[19] = molecular target: PD-L1 on monocytes (Macaca fascicularis, UniProt G7PSE7); assay: Unoccupied PD-L1 on monocytes in cynomolgus whole blood; format: cell-based, cynomolgus monkey; conditions: read-out: EC50, reducing unoccupied cell-surface PD-L1 on monocytes
Sequence of PD-L1 on monocytes (Macaca fascicularis, UniProt G7PSE7) (G7PSE7 19-290): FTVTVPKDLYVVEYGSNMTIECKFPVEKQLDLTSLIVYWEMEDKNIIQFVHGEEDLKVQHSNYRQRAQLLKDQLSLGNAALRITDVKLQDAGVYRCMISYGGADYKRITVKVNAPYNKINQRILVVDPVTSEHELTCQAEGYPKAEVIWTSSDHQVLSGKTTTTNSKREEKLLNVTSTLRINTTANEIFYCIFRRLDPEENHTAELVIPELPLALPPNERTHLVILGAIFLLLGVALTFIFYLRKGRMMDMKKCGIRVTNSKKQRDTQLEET

[20] = system: human T cells with CHO PD-L1 cells; assay: Artificial antigen-presenting cell system, IFNγ secretion; format: cell-based; conditions: for Maximal levels of IFNγ, induction: atezolizumab at 10 nmol/L
[21] = system: MC38 huPD-L1 tumors; assay: MC38 huPD-L1 tumor efficacy in C57BL/6 mice; format: in vivo, mouse
[22] = system: MC38 huPD-L1 tumors; assay: MC38 huPD-L1 tumor efficacy in NSG mice; format: in vivo, mouse; conditions: NSG mice, 2, 20, 200 mg/kg b.i.d.
[23] = molecular target: PD-L1 on MC38 huPD-L1 tumors (Homo sapiens, UniProt Q9NZQ7); assay: PD-L1 levels on MC38 huPD-L1 tumors; format: in vivo, mouse; conditions: 200 mg/kg, clone MIH1
Sequence of PD-L1 on MC38 huPD-L1 tumors (Q9NZQ7 19-290): as the sequence (Q9NZQ7 19-290) above

[24] = system: MDA-MB-231 tumors; assay: MDA-MB-231 tumor efficacy in NSG mice; format: in vivo, mouse; conditions: 20 mg/kg
[25] = 28-day toxicology study in rats; format: in vivo, rat
[26] = 28-day toxicology study in monkeys; format: in vivo, monkey
[27] = Tolerability in mice; conditions: mouse, in vivo
[28] = molecular target: T5, PD-L1 on monocytes; assay: Available PD-L1 on monocytes from clinical study patients; format: in vivo
[29] = system: plasma CXCL9, CXCL10, IFNγ, PD-L1; assay: Proteins in peripheral blood of phase I patients; format: in vivo, human
[30] = system: target lesion; assay: Clinical activity in phase I study; format: in vivo, human; conditions: patient, week 24
[31] = all tested doses up to 1,000 mg/kg

Compound: Cc1c(Nc2nccc3cc(CN4CC[C@@H](O)C4)cnc23)cccc1-c1cccc(-c2nc3cc(CN4CC[C@@H](C(=O)O)C4)cc(C#N)c3o2)c1C [INCB086550]
IC50 [1]: 3.1 ± 1.2 nM | IC50 [2]: 4.9 ± 1.6 nM | IC50 [3]: 1.9 nM and < 1.5 nM | IC50 [4]: > 10000 nM | Binding to mouse PD-L1 ([4]; HTRF): not detected | IC50 [5]: > 10000 nM | Inhibition of binding of PD-L2 to human PD-1 ([5]; concentrations up to 10 µmol/L): not inhibited | IC50 [6]: 6.3 ± 2.5 nM | EC50 [7]: 21.4 ± 8.4 nM | Inhibition of PD-1/PE binding [8]: > 90% | Binding of atezolizumab and durvalumab to PD-L1 after pretreatment [9]: blocked binding | Binding of atezolizumab and durvalumab to PD-L1 (SPR) [10]: inhibited binding | SEC-MALS peak of PD-L1 in presence of compound [11]: ~69 kDa | Binding stoichiometry n (ITC) [12]: 0.6 | Epitope occupancy of PD-L1, clone MIH1 [13]: > 90% | Reduction of PD-L1 staining, clone 28-8 (total cell-surface PD-L1) [13]: approximately 70% | Time to maximal PD-L1 internalization [14]: ~4 h | Change in total PD-L1 in cells [15]: decrease of overall PD-L1 | PD-L1 internalization, clone 28-8 staining [16]: internalization of PD-L1 and increased cytoplasmic staining | EC50 ([17]; MBT2-PD-L1 high): 0.1 nM | EC50 ([17]; MBT2-PD-L1 low): 3.7 nM | EC50 ([17]; MBT2-PD-L1 medium): 0.4 nM | EC50 [18]: 88 nM | IC90 ([18]; read-out: whole blood IC90): 792 nM | EC50 [19]: 4.5 nM | Maximal levels of IFNγ, induction [20]: 425% | Toxicity to cells ([20]; cell-based assays): No overt toxicity | tumor growth inhibition (TGI) ([21]; 2 mg/kg p.o. b.i.d., day 16): 32% | tumor growth inhibition (TGI) ([21]; 20 mg/kg p.o. b.i.d., day 16): 66% | tumor growth inhibition (TGI) ([21]; 200 mg/kg p.o. b.i.d., day 16): 69% | Antitumor activity in immunodeficient mice [22]: abolished | Maximum reduction of occupied PD-L1 [23]: > 90% | Antitumor activity in immunodeficient mice [24]: abolished | Dose at which associated events were observed (minimal to mild, nonadverse) [25]: 1,000 mg/kg/day | Tolerability [25, 31]: well tolerated | Tolerability [26, 31]: well tolerated | Doses with emesis ([26]; no evidence of target organ toxicity): ≥ 200 mg/kg/day | Adverse effects in mice [27]: no adverse effects | Dose reaching maximum inhibition of free PD-L1 [28]: 200 mg b.i.d. | Increase in plasma cell-free PD-L1 vs baseline ([29]; all dose levels, cycle 2 day 1): 1.4 fold | Increase in plasma IFNγ vs baseline ([29]; cycle 1 day 8): 3.8 fold | Increase in plasma CXCL9 vs baseline ([29]; cycle 2 day 1): 1.8 fold | Increase in plasma CXCL10 vs baseline ([29]; cycle 2 day 1): 1.4 fold | Preliminary clinical activity [30]: decrease in target lesion volume

SEC-MALS peak of PD-L1 in presence of compound [11]: approximately 33 kDa
Compound: CCCC[C@H]1C(=O)N(C)CC(=O)N[C@@H](CC(=O)O)C(=O)N[C@@H](C(C)C)C(=O)N(C)[C@@H](Cc2ccccc2)C(=O)N[C@@H](Cc2ccc(O)cc2)C(=O)N(C)CC(=O)N[C@@H](Cc2c[nH]c3ccccc23)C(=O)N[C@@H](Cc2ccc(O)cc2)C(=O)N[C@@H](CC(C)C)C(=O)N[C@H](C(=O)NCC(N)=O)CSCC(=O)N[C@@H](Cc2ccccc2)C(=O)N(C)[C@@H](Cc2ccccc2)C(=O)N1C [peptide 71, reference compound] ({CH2CO}-F[NMeF][NMeNle][Sar]DV[NMeF]Y[Sar]WYLCG-NH2; thioether N-13; N-terminus and C-terminus assumed)

Compound: atezolizumab: clinical anti–PD-L1 monoclonal antibody [reference compound]
PD-L1 internalization, clone 28-8 staining [16]: only minor levels of PD-L1 internalization | Maximal levels of IFNγ, induction [20]: 433% | tumor growth inhibition (TGI) ([21]; 5 mg/kg intraperitoneally every 5 days): 73%
